Assay results from ChEMBL document CHEMBL4414616, “Exhaustive Repertoire of Druggable Cavities at Protein-Protein Interfaces of Known Three-Dimensional Structure” (J Med Chem, 2019).
Calls of active or inactive are those of the source. The calls are words filed in the database; no cut-off is given here.

What was measured:
Lactobacillus johnsonii [1] = test: Inhibition of catalytic activity of His6-tagged Lactobacillus johnsonii N6.2 cinnamoyl esterase LJ0536 expressed in Escherichia coli BL21 (DE3) assessed as reduction in hydrolysis of 4-nitrophenyl butyrate in 4-nitrophenol pre-incubated for 2 hrs
Lactobacillus johnsonii [2] = test: Non-competive inhibition of catalytic activity of His6-tagged Lactobacillus johnsonii N6.2 cinnamoyl esterase LJ0536 expressed in Escherichia coli BL21 (DE3) assessed as substrate Vmax by measuring hydrolysis of 4-nitrophenyl butyrate in 4-nitrophenol at 400 uM pre-incubated for 2 hrs (reference value: 4.094 umol/min/mg)
Lactobacillus johnsonii [3] = test: Inhibition of catalytic activity of His6-tagged Lactobacillus johnsonii N6.2 cinnamoyl esterase LJ0536 expressed in Escherichia coli BL21 (DE3) assessed as reduction in hydrolysis of 4-nitrophenyl butyrate in 4-nitrophenol at 400 uM in presence of 2.5 to 20 mM enzyme pre-incubated for 2 hrs

In the case of `CC(C(=O)O)c1ccc(-c2ccccc2)c(F)c1` (stereo not drawn), the inhibition (Lactobacillus johnsonii [1]) is reported as “Dose-dependent effect”, the Vmax (Lactobacillus johnsonii [2]) is reported as 3.7 µmol/min/mg and the inhibition (Lactobacillus johnsonii [3]) is reported as “Active”.
